Assay results as given in patent publication US20090131470A1, “PYRAZOLE-SUBSTITUTED BENZIMIDAZOLE DERIVATIVES FOR USE IN THE TREATMENT OF CANCER AND AUTOIMMUNE DISORDERS” (priority 2005, published 2009).

Assays:
Type in all cases: biochemical
[1] = molecular target: FGFR4 (Homo sapiens, UniProt P22455); assay: Kinase selectivity screening (example 14)
[2] = molecular target: FGFR2 (Homo sapiens, UniProt P21802); assay: Kinase selectivity screening (example 14)
[3] = molecular target: Syk (Homo sapiens, UniProt P43405); assay: Kinase selectivity screening (example 14)
[4] = molecular target: CDK-2 enzyme, complexed with cyclin A (Homo sapiens, UniProt P24941); assay: CDK2 kinase assay (33P peptide phosphorylation); details: 0.1 mM ATP, cyclin A complex
[5] = molecular target: T1, GST-Chk1 enzyme (Homo sapiens, UniProt O14757); assay: Chk1 kinase assay (33P Chktide phosphorylation); details: 0.01 mM ATP, 40 minutes at 30° C.; read-out: CHK-1 IC50
T1 sequence (O14757 1-476): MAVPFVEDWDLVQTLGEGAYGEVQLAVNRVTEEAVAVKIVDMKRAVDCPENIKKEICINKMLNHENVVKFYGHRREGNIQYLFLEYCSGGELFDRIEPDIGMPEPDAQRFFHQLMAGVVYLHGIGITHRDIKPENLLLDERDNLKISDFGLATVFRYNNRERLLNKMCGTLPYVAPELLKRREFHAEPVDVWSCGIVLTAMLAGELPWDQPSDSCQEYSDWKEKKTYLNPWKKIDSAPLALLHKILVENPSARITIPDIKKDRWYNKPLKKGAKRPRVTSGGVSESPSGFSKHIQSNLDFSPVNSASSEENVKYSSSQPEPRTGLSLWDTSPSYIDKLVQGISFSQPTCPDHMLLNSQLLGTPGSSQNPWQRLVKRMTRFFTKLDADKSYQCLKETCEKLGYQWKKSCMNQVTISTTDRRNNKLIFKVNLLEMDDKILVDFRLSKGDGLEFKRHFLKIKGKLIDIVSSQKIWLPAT

[6] = molecular target: FGFR1 (Homo sapiens, UniProt P11362); assay: Kinase selectivity screening (example 14)
[7] = molecular target: KDR (Homo sapiens, UniProt P35968); assay: Kinase selectivity screening (example 14)
[8] = molecular target: FGFR3 (Homo sapiens, UniProt P22607); assay: Kinase selectivity screening (example 14)
Chain of FGFR3 (P22607 23-806, species assumed): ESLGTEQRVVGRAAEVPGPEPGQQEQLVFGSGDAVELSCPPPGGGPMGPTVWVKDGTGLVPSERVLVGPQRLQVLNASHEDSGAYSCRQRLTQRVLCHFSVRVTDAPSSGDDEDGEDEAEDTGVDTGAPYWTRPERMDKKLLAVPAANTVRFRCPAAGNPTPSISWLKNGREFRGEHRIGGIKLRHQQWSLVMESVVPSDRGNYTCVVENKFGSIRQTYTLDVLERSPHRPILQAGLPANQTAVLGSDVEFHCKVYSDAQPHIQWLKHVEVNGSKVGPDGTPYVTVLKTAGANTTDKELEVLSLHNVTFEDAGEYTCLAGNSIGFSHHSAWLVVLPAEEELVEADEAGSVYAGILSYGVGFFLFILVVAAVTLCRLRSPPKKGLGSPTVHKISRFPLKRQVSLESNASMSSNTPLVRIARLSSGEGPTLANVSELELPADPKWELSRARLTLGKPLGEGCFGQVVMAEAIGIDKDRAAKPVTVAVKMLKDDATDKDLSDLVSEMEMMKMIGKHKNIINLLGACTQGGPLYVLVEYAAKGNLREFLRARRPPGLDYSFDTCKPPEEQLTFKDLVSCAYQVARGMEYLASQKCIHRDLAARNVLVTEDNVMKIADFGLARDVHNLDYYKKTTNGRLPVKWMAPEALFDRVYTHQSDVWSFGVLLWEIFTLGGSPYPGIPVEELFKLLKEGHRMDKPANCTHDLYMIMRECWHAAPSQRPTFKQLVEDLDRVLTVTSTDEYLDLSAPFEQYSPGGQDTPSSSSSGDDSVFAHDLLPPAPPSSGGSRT

Chain of KDR (P35968 20-1356, species assumed): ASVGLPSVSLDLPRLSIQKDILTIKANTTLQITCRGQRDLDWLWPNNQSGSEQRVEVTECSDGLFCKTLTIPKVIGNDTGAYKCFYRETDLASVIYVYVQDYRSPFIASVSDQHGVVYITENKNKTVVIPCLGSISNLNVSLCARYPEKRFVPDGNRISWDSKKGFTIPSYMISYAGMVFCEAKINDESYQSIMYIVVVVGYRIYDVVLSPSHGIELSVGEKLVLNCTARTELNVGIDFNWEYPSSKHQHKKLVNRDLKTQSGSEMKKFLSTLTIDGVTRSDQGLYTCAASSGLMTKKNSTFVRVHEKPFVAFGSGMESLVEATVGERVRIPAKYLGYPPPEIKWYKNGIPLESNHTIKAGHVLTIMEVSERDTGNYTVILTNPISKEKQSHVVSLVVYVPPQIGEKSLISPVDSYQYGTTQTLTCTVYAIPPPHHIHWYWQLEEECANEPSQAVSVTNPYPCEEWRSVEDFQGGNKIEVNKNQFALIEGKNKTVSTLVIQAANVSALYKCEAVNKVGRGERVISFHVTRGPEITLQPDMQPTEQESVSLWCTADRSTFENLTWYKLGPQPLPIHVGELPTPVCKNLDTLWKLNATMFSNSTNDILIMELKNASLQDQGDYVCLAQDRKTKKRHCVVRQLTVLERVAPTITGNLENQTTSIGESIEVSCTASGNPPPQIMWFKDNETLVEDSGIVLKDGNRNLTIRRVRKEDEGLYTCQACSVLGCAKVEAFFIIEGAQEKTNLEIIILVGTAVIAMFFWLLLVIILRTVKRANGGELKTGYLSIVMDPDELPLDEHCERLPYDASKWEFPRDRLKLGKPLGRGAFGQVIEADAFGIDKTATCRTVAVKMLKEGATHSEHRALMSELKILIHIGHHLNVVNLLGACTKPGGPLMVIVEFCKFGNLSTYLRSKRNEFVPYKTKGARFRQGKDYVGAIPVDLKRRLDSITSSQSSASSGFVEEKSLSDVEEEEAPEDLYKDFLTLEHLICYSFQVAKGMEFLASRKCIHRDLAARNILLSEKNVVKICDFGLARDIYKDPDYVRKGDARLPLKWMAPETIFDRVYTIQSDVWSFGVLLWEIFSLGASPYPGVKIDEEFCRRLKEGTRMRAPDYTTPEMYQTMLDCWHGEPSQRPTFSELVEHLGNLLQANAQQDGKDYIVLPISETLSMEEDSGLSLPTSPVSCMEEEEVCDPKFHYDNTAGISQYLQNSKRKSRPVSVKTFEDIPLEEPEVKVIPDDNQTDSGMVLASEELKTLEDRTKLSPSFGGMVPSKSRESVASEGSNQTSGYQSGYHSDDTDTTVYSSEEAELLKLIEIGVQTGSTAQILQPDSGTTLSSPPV
Chain of FGFR2 (P21802 22-821, species assumed): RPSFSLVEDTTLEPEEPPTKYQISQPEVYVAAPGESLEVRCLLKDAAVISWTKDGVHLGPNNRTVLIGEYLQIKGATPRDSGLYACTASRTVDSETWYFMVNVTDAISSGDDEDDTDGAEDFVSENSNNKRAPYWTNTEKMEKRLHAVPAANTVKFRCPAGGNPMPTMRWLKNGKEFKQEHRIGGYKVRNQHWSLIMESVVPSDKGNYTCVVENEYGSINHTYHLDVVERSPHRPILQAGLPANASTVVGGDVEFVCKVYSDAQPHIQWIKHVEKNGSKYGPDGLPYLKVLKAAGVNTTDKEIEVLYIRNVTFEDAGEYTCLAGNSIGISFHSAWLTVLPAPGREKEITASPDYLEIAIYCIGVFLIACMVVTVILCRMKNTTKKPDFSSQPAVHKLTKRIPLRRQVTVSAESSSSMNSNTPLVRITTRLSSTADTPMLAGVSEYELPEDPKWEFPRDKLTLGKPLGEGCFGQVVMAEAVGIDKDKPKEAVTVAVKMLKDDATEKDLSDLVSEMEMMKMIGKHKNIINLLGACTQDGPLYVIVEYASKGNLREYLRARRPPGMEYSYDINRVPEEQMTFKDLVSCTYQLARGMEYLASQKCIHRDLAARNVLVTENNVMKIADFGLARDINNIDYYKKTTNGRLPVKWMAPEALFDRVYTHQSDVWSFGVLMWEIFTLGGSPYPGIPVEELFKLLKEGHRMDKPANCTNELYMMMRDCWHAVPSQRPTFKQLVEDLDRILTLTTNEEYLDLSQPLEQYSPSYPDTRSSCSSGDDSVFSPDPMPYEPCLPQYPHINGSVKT
Chain of FGFR4 (P22455 22-802, species assumed): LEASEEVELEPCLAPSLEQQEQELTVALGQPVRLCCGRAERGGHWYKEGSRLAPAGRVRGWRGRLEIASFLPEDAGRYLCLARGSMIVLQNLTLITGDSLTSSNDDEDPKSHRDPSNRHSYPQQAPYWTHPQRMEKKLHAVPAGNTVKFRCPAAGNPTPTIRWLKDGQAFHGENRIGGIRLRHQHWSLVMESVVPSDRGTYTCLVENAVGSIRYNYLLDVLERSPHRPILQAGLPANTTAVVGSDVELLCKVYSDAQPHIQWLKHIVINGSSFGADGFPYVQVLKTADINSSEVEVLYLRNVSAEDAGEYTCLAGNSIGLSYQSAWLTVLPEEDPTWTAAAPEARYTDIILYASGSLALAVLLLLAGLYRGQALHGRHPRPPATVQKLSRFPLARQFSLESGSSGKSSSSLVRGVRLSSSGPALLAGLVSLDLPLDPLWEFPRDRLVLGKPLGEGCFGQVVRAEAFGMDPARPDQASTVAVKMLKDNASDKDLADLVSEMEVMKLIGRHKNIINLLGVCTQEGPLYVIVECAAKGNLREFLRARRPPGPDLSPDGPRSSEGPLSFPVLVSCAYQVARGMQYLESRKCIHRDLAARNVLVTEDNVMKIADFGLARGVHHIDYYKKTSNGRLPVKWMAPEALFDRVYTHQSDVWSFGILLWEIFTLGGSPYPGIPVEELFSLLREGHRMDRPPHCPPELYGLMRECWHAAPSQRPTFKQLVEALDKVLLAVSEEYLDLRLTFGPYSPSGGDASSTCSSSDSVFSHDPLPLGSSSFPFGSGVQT
Chain of FGFR1 (P11362 22-822, species assumed): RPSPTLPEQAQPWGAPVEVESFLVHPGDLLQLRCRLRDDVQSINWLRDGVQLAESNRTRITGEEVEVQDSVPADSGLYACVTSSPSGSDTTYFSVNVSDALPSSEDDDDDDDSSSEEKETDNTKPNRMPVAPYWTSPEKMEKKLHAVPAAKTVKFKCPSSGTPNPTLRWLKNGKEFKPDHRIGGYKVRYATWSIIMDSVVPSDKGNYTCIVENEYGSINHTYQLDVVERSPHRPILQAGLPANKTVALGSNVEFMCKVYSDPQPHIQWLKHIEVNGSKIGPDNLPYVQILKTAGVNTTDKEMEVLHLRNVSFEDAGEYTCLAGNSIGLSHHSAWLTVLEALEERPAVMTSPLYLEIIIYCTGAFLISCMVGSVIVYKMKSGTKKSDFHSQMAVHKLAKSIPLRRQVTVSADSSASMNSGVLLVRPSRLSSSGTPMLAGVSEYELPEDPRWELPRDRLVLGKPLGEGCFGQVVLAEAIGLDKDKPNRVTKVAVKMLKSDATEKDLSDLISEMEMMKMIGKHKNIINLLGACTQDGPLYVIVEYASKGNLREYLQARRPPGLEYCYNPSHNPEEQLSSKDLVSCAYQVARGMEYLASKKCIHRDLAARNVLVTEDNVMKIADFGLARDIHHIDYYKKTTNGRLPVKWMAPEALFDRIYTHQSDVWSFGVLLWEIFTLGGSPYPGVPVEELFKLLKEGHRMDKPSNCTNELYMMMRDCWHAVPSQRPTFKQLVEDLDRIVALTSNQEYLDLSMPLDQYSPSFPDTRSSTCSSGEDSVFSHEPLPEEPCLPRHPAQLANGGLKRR

Cc1[nH]nc(-c2nc3cc4cn[nH]c4cc3[nH]2)c1C(=O)NC1CCNCC1 [Example 14] was tested, and the “selectivity versus FGFR4” value [1] was > 20 fold, the “selectivity versus FGFR2” value [2] was > 20 fold and the “selectivity versus Syk” value [3] was > 20 fold. For the same compound, the IC50 [4] was 5.11 µM, the IC50 [5] was 6 nM and the “selectivity versus FGFR1” value [6] was > 20 fold. The “selectivity versus KDR” value [7] was > 20 fold and the “selectivity versus FGFR3” value [8] was > 20 fold.
